According to patent US7063946B2, “Methods, reagents, kits and apparatus for protein function analysis” (Meso Scale Technologies, LLC., priority 2001, dated 2006):

Columns and labels:
[1] = target: T1, EGFR-pY992 (SEQ ID NO: 5) (Homo sapiens, UniProt P00533); experiment: Single-well 4-spot assay for multiple peptide-protein interactions; format: binding; conditions: 4-spot plate
T1 construct: phosphotyrosine at Tyr992 (chemical modification); purchased New England Peptide, Fitchburg Mass; host or cells: chemical synthesis
Source text: Four phosphopeptides and their cognate binding proteins (Table 14) were selected for an integrated assay of multiple peptide-protein interaction in 4-spot Multi-Array plates. The IkBa-24pp peptide and its binding protein, βTRCP, are described in Example 10. […] These phosphotyrosine containing peptides are recognized by different adaptor or effecter proteins of the receptor tyrosine kinase signaling pathway.
These four peptides were coupled to BSA carrier protein through cystine residue. After purification on PD-10 gel filtration columns, the peptide-BSA conjugates were then deposited on the assay domains of a 4-spot multi-array IPR plate (i.e., in one of the four exposed regions of working electrode defined by the dielectric layer) with an automated micro-dispensing system (Bio-Dot Dispenser, Bio-Dot, Irvine Calif.). […] These plates are dried then used or stored under desiccated conditions. A few hours prior to usage the plates were rehydrated and blocked with 3% BSA in PBS. […] The in vitro translated and biotin-labeled proteins were then assayed in the 4-spot multi-array IPR plates under conditions described in Example 10.

[2] = test system: FRK; experiment: Kinase inhibitor profiling, pEY phosphorylation; format: biochemical
[3] = target: T2, Fert2 (Mus musculus, UniProt P70451); experiment: Kinase inhibitor profiling, pEY phosphorylation; format: biochemical
T2 construct: specificity data for proteins generated from a library of eighteen full-length clones; host or cells: rabbit reticulocyte lysate, TnT coupled transcription/translation
T2 sequence (P70451 whole entry): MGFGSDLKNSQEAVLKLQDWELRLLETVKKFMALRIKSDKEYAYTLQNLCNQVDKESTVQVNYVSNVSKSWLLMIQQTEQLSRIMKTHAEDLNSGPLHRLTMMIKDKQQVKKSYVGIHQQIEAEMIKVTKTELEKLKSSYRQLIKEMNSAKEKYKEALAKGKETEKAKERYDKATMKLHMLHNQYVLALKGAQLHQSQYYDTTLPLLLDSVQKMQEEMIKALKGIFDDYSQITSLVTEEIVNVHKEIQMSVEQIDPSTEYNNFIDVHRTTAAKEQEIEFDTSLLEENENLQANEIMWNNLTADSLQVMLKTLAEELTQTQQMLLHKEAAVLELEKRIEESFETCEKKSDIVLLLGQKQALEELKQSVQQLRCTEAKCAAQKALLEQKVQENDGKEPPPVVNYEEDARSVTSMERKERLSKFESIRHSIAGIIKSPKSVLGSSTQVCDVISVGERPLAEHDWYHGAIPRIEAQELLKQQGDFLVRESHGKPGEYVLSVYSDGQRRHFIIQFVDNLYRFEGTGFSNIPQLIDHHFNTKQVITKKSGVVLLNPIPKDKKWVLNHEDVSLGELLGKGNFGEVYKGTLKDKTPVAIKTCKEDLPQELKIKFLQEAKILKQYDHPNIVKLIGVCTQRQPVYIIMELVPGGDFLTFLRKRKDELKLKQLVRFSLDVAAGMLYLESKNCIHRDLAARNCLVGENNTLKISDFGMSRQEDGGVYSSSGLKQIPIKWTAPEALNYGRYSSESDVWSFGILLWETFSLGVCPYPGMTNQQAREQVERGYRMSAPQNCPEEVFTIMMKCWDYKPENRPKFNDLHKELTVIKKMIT

Compound	ECL signal, spot 4 EGFR-pY992 [1]	Inhibition specificity towards pEY phosphorylation at 10X IC50, FRK [2]	Inhibition specificity towards pEY phosphorylation at 10X IC50, Fert2 [3]
3872466: IMAGE clone protein: mCBP [compound 3872466]	498	–	–
COc1c(C=O)c(O)cc2c1C(=O)c1ccccc1C2=O [Damnacanthal]	–	H (high inhibition (“H”=less than 25% of the activity remaining))	L (low inhibition (“L”=between 50–75% of the activity remaining))
